In the supplement of paper PMC10307832:

Assays:
Assay in all cases: relative viability (nuclei count vs DMSO), 5 days (fraction); higher = more cells survive
HARA = tested on: HARA
In short: (§1)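 Cells from lung cancer lines were seeded into 1536-well plates and, one day later, dosed by pin tool. Treatments were either a single drug or a fixed dose of an anchor drug with five library-drug doses (not always all listed) in √10 steps. After 5 days, nuclei were stained in a one-step fixation (final 0.05% Triton X-100, 1% formaldehyde, 1 ug/ml Hoechst) and counted on 4× images, and relative viability is the treated-to-vehicle nuclei ratio, as the median of duplicate plates.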

LU99A = tested on: LU99A
In short: as §1

UMC-11 = tested on: UMC-11
In short: as §1

NCI-H2085 = tested on: NCI-H2085
In short: as §1

NCI-H2126 = tested on: NCI-H2126
In short: as §1

NCI-H1355 = tested on: NCI-H1355
In short: as §1

EPLC-272H = tested on: EPLC-272H
In short: as §1

HCC-44 = tested on: HCC-44
In short: as §1

NCI-H2023 = tested on: NCI-H2023
In short: as §1

NCI-H838 = tested on: NCI-H838
In short: as §1

PC-14 = tested on: PC-14
In short: as §1

Work on CCN(CC)CCCCNc1ncc2cc(-c3cc(OC)cc(OC)c3)c(NC(=O)NC(C)(C)C)nc2n1 + CC(=O)Nc1cccc(-n2c(=O)n(C3CC3)c(=O)c3c(Nc4ccc(I)cc4F)n(C)c(=O)c(C)c32)c1 [Trametinib] (partner 0.02 µM) yielded a relative viability (HARA; first compound 0.01 µM) of 0.589, a relative viability (HARA; first compound 0.03162 µM) of 0.632 and a relative viability (HARA; first compound 0.1 µM) of 0.645. For the same molecule, the relative viability (HARA; first compound 0.3162 µM) was 0.579, the relative viability (HARA; first compound 1 µM) was 0.466 and the relative viability (LU99A; first compound 0.01 µM) was 0.593. For the same molecule, the relative viability (LU99A; first compound 0.03162 µM) was 0.537, the relative viability (LU99A; first compound 0.1 µM) was 0.527 and the relative viability (LU99A; first compound 0.3162 µM) was 0.6. For the same molecule, the relative viability (LU99A; first compound 1 µM) was 0.505, the relative viability (UMC-11; first compound 0.01 µM) was 0.686 and the relative viability (UMC-11; first compound 0.03162 µM) was 0.483. For the same molecule, the relative viability (UMC-11; first compound 0.1 µM) was 0.593, the relative viability (UMC-11; first compound 0.3162 µM) was 0.764 and the relative viability (UMC-11; first compound 1 µM) was 0.695. The relative viability (NCI-H2085; first compound 0.01 µM) was 0.521, the relative viability (NCI-H2085; first compound 0.03162 µM) was 0.682 and the relative viability (NCI-H2085; first compound 0.1 µM) was 0.496. It also gave a relative viability (NCI-H2085; first compound 0.3162 µM) of 0.469, a relative viability (NCI-H2085; first compound 1 µM) of 0.547 and a relative viability (NCI-H2126; first compound 0.01 µM) of 0.533. It also gave a relative viability (NCI-H2126; first compound 0.03162 µM) of 0.578, a relative viability (NCI-H2126; first compound 0.1 µM) of 0.58 and a relative viability (NCI-H2126; first compound 0.3162 µM) of 0.58. The relative viability (NCI-H2126; first compound 1 µM) was 0.578, the relative viability (NCI-H1355; first compound 0.01 µM) was 0.462 and the relative viability (NCI-H1355; first compound 0.03162 µM) was 0.436. It also gave a relative viability (NCI-H1355; first compound 0.1 µM) of 0.479, a relative viability (NCI-H1355; first compound 0.3162 µM) of 0.502 and a relative viability (NCI-H1355; first compound 1 µM) of 0.382. It also gave a relative viability (EPLC-272H; first compound 0.01 µM) of 0.263, a relative viability (EPLC-272H; first compound 0.1 µM) of 0.277 and a relative viability (EPLC-272H; first compound 0.3162 µM) of 0.281. The relative viability (EPLC-272H; first compound 1 µM) was 0.215, the relative viability (HCC-44; first compound 0.01 µM) was 0.987 and the relative viability (HCC-44; first compound 0.03162 µM) was 1.08. It also gave a relative viability (HCC-44; first compound 0.1 µM) of 1.1, a relative viability (HCC-44; first compound 0.3162 µM) of 1.11 and a relative viability (HCC-44; first compound 1 µM) of 0.931. For the same molecule, the relative viability (NCI-H2023; first compound 0.01 µM) was 0.662, the relative viability (NCI-H2023; first compound 0.03162 µM) was 0.551 and the relative viability (NCI-H2023; first compound 0.1 µM) was 0.624. It also gave a relative viability (NCI-H2023; first compound 0.3162 µM) of 0.629, a relative viability (NCI-H2023; first compound 1 µM) of 0.447 and a relative viability (NCI-H838; first compound 0.01 µM) of 0.469. The relative viability (NCI-H838; first compound 0.03162 µM) was 0.515, the relative viability (NCI-H838; first compound 0.1 µM) was 0.514 and the relative viability (NCI-H838; first compound 0.3162 µM) was 0.435. The relative viability (NCI-H838; first compound 1 µM) was 0.443, the relative viability (PC-14; first compound 0.01 µM) was 0.956 and the relative viability (PC-14; first compound 0.03162 µM) was 0.836. It also gave a relative viability (PC-14; first compound 0.1 µM) of 1.16, a relative viability (PC-14; first compound 0.3162 µM) of 0.759 and a relative viability (PC-14; first compound 1 µM) of 0.591.
